Converted amounts (≈) assume the structure as drawn. “Also recorded” adds a separate entry of the source. Where a SMILES comes first, the peptide text is derived from it.

One series has as its system Fusarium oxysporum. In kind it is cell-based. To be noted: 24 h. Here is the method:
Dose dependent inhibition of fungal growth by all non-labelled peptides (indicated by IC50 values) was determined via this methodology. The assays were performed using Nunc 262162 U96 polystyrene round bottomed clear plates (www.nuncbrand.com).
When testing the peptides against A. fumigatus, peptides at different concentrations were mixed with A. fumigatus conidia to reach a final volume of 100 μL per well. The final conidial concentration was 5×10^5 cells/mL in 10% Vogel's medium. After 24 h of incubation at 37° C. in 96 well plates, fungal growth with the different peptide concentrations was determined by measurement of the optical density at 610 nm in a TriStar LB 941 Multimode Microplate Reader. The IC50 values were determined using four parameter logistic regression formula provided by Sigma Plot 10.0. Values are represented as means±SEM from two independent experiments (n=3).
When testing the peptides against N. crassa and F. oxysporum, experiments were carried as described above apart from the incubation temperature was changed to 25° C. for N. crassa and 35° C. for F. oxysporum.
The IC50 of the fluorescently labelled peptides cannot be accurately determined using the optical density method described in the last section. This is because the fluorophore structures absorbed light at 610 nm which was the wavelength used for the optical density measurements. In order to overcome this, the BacTiter-Glo™ Microbial Cell Viability Assay kit purchased from Promega was used. The BacTiter-Glo™ Reagent relies on the properties of a proprietary thermostable luciferase (Ultra-Glo™ Recombinant Luciferase) and a proprietary formulation for extracting ATP from fungal cells which will generates a ‘glow-type’ luminescent signal. This is produced by the luciferase reaction shown in Scheme 1, which has a signal half-life of over 30 min depending on the experimental conditions. The luminescent signal is proportional to the amount of ATP present, which is directly proportional to the number of living cells in culture.
The IC50 assays for all fluorescently labelled peptides were performed using Greiner CELLSTAR white polystyrene wells flat bottomed 96 well plates. The incubation conditions remained the same for the optical density measurement described in the previous section. Once the incubation procedure was finished, the plate was equilibrated to room temperature. A mixture of BacTiter-Glo™ buffer and substrate was then added to the plate (100 μL per well). The plate was shaken for 5 min and read using the Tristar […] luminometer. Data analysis was performed using Sigma Plot 10.0. All values shown are presented as means±SEM from two independent experiments (n=3).

Series [1] in a line: Viability of reconstructed cornea-like epithelium (eye irritation model). In kind it is cell-based. To be noted: human, reconstructed cornea-like epithelium (RhCE, EpiOcular™). As to the method:
(§1) FIG. 4a is a graph of the viability reconstructed cornea-like epithelium (RhCE, EpiOcular™) after incubation with MFIGA001. NC=Negative Control; PC=Positive Control. FIG. 4b is a graph of the viability reconstructed cornea-like epithelium (RhCE, EpiOcular™) after incubation with 10 µM of MFIGA001a and MFIGAF001b. NC=Negative Control; PC=Positive Control; A2=MFIGAF001a; and B1=MFIGAF001b.
(§2) MFIGAF001 was also assessed independently by a CRO (Evotec) in an OECD compliant reconstructed cornea-like epithelial cell model (RhCE, EpiOcular™).

In series [2] the test system is reconstructed cornea-like epithelium (RhCE, EpiOcular™). Described as above. Format: cell-based. As to the method: as §1, §2
In a further series the test system is YFP-A. fumigatus. The series can be described thus: Ex vivo porcine cornea infected with YFP-A. fumigatus, topical treatment, confocal live-cell imaging. On the set-up: species or system Aspergillus fumigatus. Here is the method: FIG. 6 contains images of ex vivo corneas infected with YFP-A. fumigatus treated with either PBS or MFIGAF001. All cornea were treated with one drop of reagent every 2 hours for the first 8 hours, then one drop every 8 hours for the remaining 16 hours. Treatment was continued for 72 hours with this treatment regimen. MFIGAF001 was used at 100 mg/L.
FIG. 7 contains images of an ex vivo cornea infected with A. fumigatus treated with MFIGAF001, using the fluorescent confocal live-cell imaging approach with a yellow fluorescent protein (YFP). The yellow fluorescent signal (yellow in the original graphs, white reproduced here) indicates the live fungal burden that penetrated into the corneal tissue. All cornea were treated with one drop of reagent every 2 hours for the first 8 hours, then one drop every 8 hours for the remaining 16 hours. Treatment was continued for 72 hours with this treatment regimen. MFIGAF001 was used at 100 mg/L.
FIG. 8 contains images of an ex vivo cornea infected with A. fumigatus treated with either Natamycin or MFIGAF001, using the fluorescent confocal live-cell imaging approach with a YFP. All cornea were treated with one drop of reagent every 2 hours for the first 8 hours, then one drop every 8 hours for the remaining 16 hours. […]
YFP-A. fumigatus spores were harvested from 3 days old cultures grown on SAB agar at 37° C. in PBST and quantified using a haemocytometer. […]

A word on the viability: it is a per cent measure of how many cells are alive, often set against a control. Lower therefore signals more harm to the cells. Regarding `N=C(N)NCCC[C@@H]1NC(=O)CNC(=O)[C@H](Cc2c[nH]c3ccccc23)NC(=O)[C@H](Cc2ccccc2)NC(=O)[C@H](Cc2c[nH]c3ccccc23)NC(=O)[C@@H](Cc2ccccc2)NC(=O)[C@H](CCCCN)NC(=O)[C@H](CCCCN)NC1=O` [MFIGAF001, Cyclo(Arg-Lys-Lys-phe-Trp-Phe-Trp-Gly)] (HELM PEPTIDE1{F.W.G.R.K.K.[dF].W}$PEPTIDE1,PEPTIDE1,1:R1-8:R2$$$V2.0), the “IC50 Fusarium oxysporum” value in the series on Fusarium oxysporum was 1.9 µg/mL (≈ 1.67 µM). In series [1], this compound registered a viability at 100 µg/mL of 87.3%, a viability at 200 µg/mL of 87.2%, a viability at 400 µg/mL of 88.6% and a viability at 500 µg/mL of 93.7%. For the same compound, the “Toxicity, reconstructed cornea-like epithelium (FIG. 4)” value in series [2] was “no obvious toxicity”. Further, in the series with YFP-A. fumigatus (100 mg/L topical drops, 72 h of treatment, vs saline), the “Live fungal burden in ex vivo cornea” value is “reduced fungal burden; also recorded: elimination of live fungal burden”. For the same compound, in the series on YFP-A. fumigatus (MFIGAF001 100 mg/L, Natamycin 120 mg/L, 72 hours), the “Efficacy ex vivo compared with Natamycin” value is given as “comparable efficacy”.

(Values after patent US20240299591A1, “Antimicrobial Peptides and Their Use” (priority 2021, published 2024).)
